In patent US11155580B2, “Modified proteins and methods of use thereof” (YALE UNIVERSITY, priority 2013, dated 2021):
Entries after “also recorded” stand apart in the source; their conditions may differ. Where no end group is shown, it is not given here. Rhod = not defined here

Assays:
[1] = tested on: HeLa cells transfected with GR-GFP; test: GR-GFP translocation assay (cytosolic access of Dex-labeled molecules); type: cell-based; settings: for effect of bafilomycin on TR: 200 nM bafilomycin pretreatment 1 h; for effect of bafilomycin on TR / effect of EIPA on TR / effect of dynasore on TR / effect of methyl-β-cyclodextrin (MβCD) on TR: then 1 μM; for translocation ratio (TR) / effect of EIPA on TR / effect of dynasore on TR / effect of methyl-β-cyclodextrin (MβCD) on TR: 30 min; for translocation ratio (TR): HeLa cells expressing GR-GFP; for effect of EIPA on TR: 50 μM EIPA pretreatment 30 min; for effect of dynasore on TR: 80 μM dynasore pretreatment 30 min; for effect of methyl-β-cyclodextrin (MβCD) on TR: 5 mM MβCD pretreatment 30 min
Protocol: HeLa cells transfected with pK7-GR-GFP were plated in Matrical plates as described above. To label nuclei, the media was replaced with HKR buffer containing 300 nM Hoescht and the cells incubated for 30 min at 37° C.
Cells were then analyzed as described above.
HeLa cells transfected with pK7-GR-GFP for 24-36 hr were plated (10^4/well in 200 μL) the day prior to experiments in 96 well glass bottom plates (Matrical). The media was replaced with HKR buffer containing 300 nM Hoescht and the cells incubated for 30 min at 37° C. […] The cells were incubated for a further 30 min at 37° C. before epifluorescence imaging using a Zeiss Axiovert 200M microscope fitted with a mRM digital camera, a 63×1.3NA PlanApo objective and an EXFO-Excite illumination source.
Uptake was allowed to proceed for an additional 30 min at 37° C. before analysis by epifluorescence images as described elsewhere herein.
The image analysis algorithm used by CellProfiler is customizable and contained within a ‘Pipeline’ that describes a series of image manipulation and evaluation steps, such as reading the image, adjusting the intensity, and identifying objects. Each step has several options. […] Using the image of Hoescht fluorescence and Otsu's method of automatic thresholding, nuclei were identified and segmented using 3 class thresholding. The middle class was assigned to background. Closely approximated objects were separated using ‘Laplacian of Gaussian’ modeling, and touching nuclei were divided using the ‘shape’ option. Nuclear regions were expanded by 2 μm to generate an enlarged region. The nuclear region was subtracted from enlarged region to generate a ring surrounding the nucleus (surround). […] The ratio of the median intensities of the nuclear and surrounding region of the GFP or mCherry (as appropriate) image were collected for every cell examined. Those cells falling below a threshold of intensity (10% of the maximum intensity of the image) were discarded as ‘untransfected’. Typically, 20-60 transfected cells from 15-30 images were examined for each experimental condition.

U2OS(GIGI) cells = test: GIGI in lysates, stably transfected U2OS(GIGI) cells; type: cell-based
Description: RFUs are expressed±standard deviation (Excel). The maximum induction level is defined as RFUmax. Data were processed using Kaleidagraph and GraphPad Prism software. RFU=([I530]/[I580])−([I′530]/[I′580]) (1)
Y=Ymin+(Ymax−Ymin)/(1+10^logEC50-X) (2)

Saos-2(GIGT) cells = test: GIGT high-content imaging in stably transfected Saos-2(GIGT) cells; type: cell-based, human
Protocol: Saos2(GIGT) cells were plated onto 384-well plates (2,500 cells/well) in 40 μL of full McCoy's 5A and allowed to adhere overnight. […] Following treatment, cells were fixed with 4% paraformaldehyde for 20 min at room temperature and washed with PBS. […] Translocation ratios were determined using Acapella high content imaging and analysis software, with a script that processed the images in a manner similar to the CellProfiler pipeline described in the Supporting Information. Each data point represents 30-60 images containing over 100 cells.

cathepsin B = cathepsin B (Homo sapiens, UniProt P07858); test: Resistance to acid proteases: cathepsin B; type: in vitro ADME; settings: 50 pmol, 30 min, 37° C., pH 5
Protocol: 50 pmol aPPR, 5.2R, 5.3R, ZF5.3R, TatR (SEQ ID NO:67), or Arg8R (SEQ ID NO:68) were incubated with 5 pg cathepsin B, D, or L for 30 min at 37° C. in 10 μL of 20 mM sodium phosphate buffer (pH 5) containing 150 mM NaCl. At the end of the incubation, the reaction was stopped by adding 40 μL of a solution containing a 84:15:1 ratio of water:EtOH:TFA before analysis by HPLC.

HeLa cells [2] = test: HPLC analysis of cytosolic extracts prepared with streptolysin O; type: cell-based; settings: HeLa cells treated with rhodamine labeled molecule
Protocol: To generate cytosolic extracts, HeLa cells were treated with streptolysin O (SLO), a well characterized bacterial toxin that creates pores in the plasma membranes of target cells (Walev et al., 2002, FASEB 16:237-239). […] Moreover, when the toxin is added to cultured cells at 4° C. and washed with PBS before raising the temperature to 37° C., pores are created only in the plasma membrane and the release of ER, golgi, or endolysosomal contents are avoided (Androlewicz et al., 1993, Proc Natl Acad Sci USA 90:9130-9134).
First, selective release of the cytoplasmic contents of HeLa cells using the published procedures was verified. HeLa cells were treated with 20 μg/mL SLO in PBS containing 5 mM DTT (20 min, 4° C.), washed (three PBS washes, 150 μL each), resuspended in PBS, and incubated at 37° C. for 15 min, after which 1.5 μM propidium iodide (PI), a marker of permeabilized cell membranes, was added.

HeLa cells [3] = test: Effects of endocytosis inhibitors on cell uptake, confocal microscopy; type: cell-based; settings: 1 μM rhodamine labeled, 30 min, 37° C.
Protocol: HeLa cells grown for 24 h in glass bottom plates were incubated with HKR buffer, or HKR buffer containing 80 μM dynasore, 50 μM N-ethyl-isopropyl-amiloride, or 5 mM methyl-β-cyclodextrin for 30 min at 37° C. prior to the addition of 1 μM rhodamine-labeled miniature protein or peptide (Tat (SEQ ID NO:67) and Arg8 (SEQ ID NO:68)). The cells were washed twice with DMEM, the nuclei labeled with Hoescht, and images acquired as described above for colocalization experiments.

HeLa cells [4] = test: Colocalization with Alexa-488-transferrin (Tf488), live cell confocal microscopy; type: cell-based; settings: 1 μM, 30 min
Protocol: To examine the colocalization of rhodamine labeled miniature proteins or peptides with Alexa-488-transferrin (Tf488), HeLa cells were plated (200 μl, 10^4 cells/well, 96 well glass bottom plates, Matrical) the day prior to experiments. The media was replaced with 150 μL Hepes-Krebs-Ringer's (HKR) buffer (140 mM NaCl, 2 mM KCl, 1 mM CaCl2, 1 mM MgCl2, 10 mM Hepes pH 7.4) containing 1 μM miniature protein or 25 nM Alexa-488-transferrin (Molecular Probes) and the cells incubated at 37° C. for 30 min. The cells were then rinsed twice with 200 μL, HKR buffer and nuclei were labeled by overlaying 200 μL HKR containing 300 nM Hoechst 33342 (Molecular Probes Cat. # H3570) for 5 minutes. Images of cells were acquired using a PerkinElmer LiveView spinning disk confocal microscope fitted with a 60×1.2 NA objective. Colocalization with Rab-GFP fusions was examined in an analogous way using HeLa cells transfected with the appropriate expression plasmid.
Colocalization between rhodamine and fluorescein labeled miniature proteins and peptides, or between rhodamine labeled miniature proteins and markers of endocytosis was completed using confocal microscopy. Live cell confocal microscopy was conducted using a PerkinElmer LiveView spinning disk confocal microscope fitted with heated microscope enclosure (maintained at 37° C.), a 60×1.2 NA objective, laser illumination, a Nipkow CSU-1× spinning disk, and a Hammamatsu CS9100 EMCCD camera operated using Velocity software. Alexafluor-488-transferrin was detected using a 488 nm laser and a 520 nm long pass filter; tetraethylrhodamine and Alexafluor-546-transferrin were detected using a 546 nm laser line and a 580 nm long pass filter, Hoescht 33342 was detected using a 405 nm laser line and a 450 nm long pass filter. Images were processed for presentation by using the ‘subtract background’ option and linear contrast adjustments in Image J. All adjustments were applied uniformly to the entire image. Colocalization analysis was performed using the JACOP plugin (Bolte and Cordelières, 2006), available on the ImageJ website. The fraction of rhodamine signal overlapping with EGFP signal (R E G) was calculated using Mander's coefficient and automatic thresholding. Pearson's correlation coefficient (R) was also obtained using the JACOP plugin.

[5] = tested on: HeLa cells transfected with pGR-mCherry and Rab5-GFP or Rab5Q79L-GFP; test: GR-mCherry translocation in cells expressing Rab5-GFP or Rab5Q79L-GFP; type: cell-based; settings: for effect of Rab5Q79L on ability to reach the cytoplasm / TR: overexpression of Rab5Q79L-GFP
Protocol: Cotransfected cells expressing Rab-GFP fusions and pGR-mCherry were identified via their characteristic pattern of green and red fluorescence. The translocation ratio was determined using median values of mCherry fluorescence within the nucleus and surrounding region using CellProfiler.
HeLa cells transfected for 24-36 hr with pGR-mCherry and either Rab5-GFP or Rab5Q79L-GFP were plated (10^4/well in […]) the day prior to experiments in 96 well glass bottom plates (Matrical). The cells were washed with HKR buffer and the nuclei labeled using Hoescht as above. […] The cells were incubated for a further 30 min at 37° C. before imaging. Cells that had been cotransfected with EGFP fusions were identified via their characteristic pattern of green and red fluorescence. To evaluate the extent of GR activation, epifluorescence images were obtained as described above, except the fluorescence of pGR-mCherry was also visualized using Zeiss Filter Set #43 (ex BP 545/25 nm, FT 570, em BP 605/70 nm).
The image analysis algorithm used by CellProfiler is customizable and contained within a ‘Pipeline’ that describes a series of image manipulation and evaluation steps, such as reading the image, adjusting the intensity, and identifying objects. Each step has several options. […] Using the image of Hoescht fluorescence and Otsu's method of automatic thresholding, nuclei were identified and segmented using 3 class thresholding. The middle class was assigned to background. Closely approximated objects were separated using ‘Laplacian of Gaussian’ modeling, and touching nuclei were divided using the ‘shape’ option. Nuclear regions were expanded by 2 μm to generate an enlarged region. The nuclear region was subtracted from enlarged region to generate a ring surrounding the nucleus (surround). The diameter of the surrounding region was chosen to be 2 μm larger than the nucleus, within the range (1-3 μm) used by previously reported high content screens (Ding et al., 1998, J Biol Chem. 273:28897-28905; Peeraniet al., 2007, EMBO J. 26:4744-4755). The ratio of the median intensities of the nuclear and surrounding region of the GFP or mCherry (as appropriate) image were collected for every cell examined. Those cells falling below a threshold of intensity (10% of the maximum intensity of the image) were discarded as ‘untransfected’. Typically, 20-60 transfected cells from 15-30 images were examined for each experimental condition.

| Substance | effect of bafilomycin on TR [1] | translocation ratio (TR) ([1]; 1 μM) | effect of EIPA on TR [1] | effect of dynasore on TR [1] | effect of methyl-β-cyclodextrin (MβCD) on TR [1] | degradation by cathepsin B (HPLC) (cathepsin B) | material found in SLO cytoplasmic extracts (HPLC) (HeLa cells [2]) | effect of Rab5Q79L on ability to reach the cytoplasm / TR [5] | also measured |
| --- | --- | --- | --- | --- | --- | --- | --- | --- | --- |
| K^DexWYSCNVCGKAFVLSRHLNRHLRVHRRAT-NH2 (K(dexamethasone)WYSCNVCGKAFVLSRHLNRHLRVHRRAT-NH2; cysteine pairing not given here) [ZF5.3Dex] | reduced to background levels | 2.4±0.09 | reduced to background levels | reduced to background levels | reduced to background levels | – | – | – | EC50 fold lower than that of ZFN1-4Dex (U2OS(GIGI) cells): 70-80 fold; EC50 fold lower than that of wtZFDex (U2OS(GIGI) cells): 100 fold; EC50 (U2OS(GIGI) cells; Dex-labeled peptides, 24 h, lysates, read-out: EC50 (eGFP expression, GIGI)): 1.4 nM; GR★-GFP translocation (GIGT) compared with wtZF and all four ZFN domains (Saos-2(GIGT) cells; GIGT): significantly higher levels; cells expressing GR★-GFP with significant translocation ratios (Saos-2(GIGT) cells; GIGT): greater than 99% |
| K^RhodRRRRRRRR-NH2 (K(Rhod)RRRRRRRR-NH2; reading uncertain; also: printed as K^RhodRRRRRRRR-NH2) [Arg8R] | – | – | – | – | – | little or no degradation | retention times distinct from the starting material; also recorded: little or no material with the same retention time as the starting material | – | effect of EIPA on uptake (HeLa cells [3]; 50 μM EIPA): dramatically reduced the uptake; effect of dynasore on uptake (HeLa cells [3]; 80 μM dynasore): completely blocked the uptake; effect of MβCD on uptake (HeLa cells [3]; 5 mM MβCD): increased; intracellular red fluorescent signal (HeLa cells [4]): red fluorescent puncta throughout the cytosol |
| K^DexGRKKRRQRRRPPQY-NH2 (K(dexamethasone)GRKKRRQRRRPPQY-NH2) [TatDex] | completely blocked the increase in TR | 2.85±0.10 | reduced, to background levels | reduced, to background levels | reduced, to background levels | – | – | blocked the ability | increase in TR blocked by wortmannin ([1]; 200 nM wortmannin, 1 μM): 72%; TR (GR-mCherry), Rab5Q79L-GFP expressing cells ([5]; 1 μM, 30 min, Rab5Q79L-GFP): 1.26±0.03; TR (GR-mCherry), Rab5-GFP expressing cells ([5]; 1 μM, 30 min, wild-type Rab5-GFP): 1.57±0.04; eGFP expression (U2OS(GIGI) cells; 1 μM, lysates): significant eGFP expression; translocation ratio (TR), GR★-GFP (Saos-2(GIGT) cells; 1 μM, 30 min, Saos-2(GIGT) cells): 2.28±0.24 |
| K^RhodWYSCNVCGKAFVLSRHLNRHLRVHRRAT-NH2 (K(Rhod)WYSCNVCGKAFVLSRHLNRHLRVHRRAT-NH2; cysteine pairing not given here; reading uncertain; also: printed as KRhodWYSCNVCGKAFVLSRHLNRHLRVHRRAT-NH2) [ZF5.3R] | – | – | – | – | – | little or no degradation | can be recovered from cytosolic extracts; also recorded: a single peak with the same retention time as the starting material | unaffected | effect of wortmannin on TR ([1]; wortmannin treatment): unaffected |
